From patent publication US20200190062A1, “HETEROCYCLIC COMPOUND AND PHARMACEUTICAL COMPOSITION COMPRISING SAME” (BEYONDBIO INC., priority 2015, published 2020)
Structures can show the parent of a compound that is named as a salt.

Legend:
Assay in all cases: Inhibition of cancer cell proliferation (MTT)
Type in all cases: cell-based, human
A549 = test system: A549
Method: (§1) A test was conducted to confirm whether the compounds obtained in the above Examples can inhibit proliferation of human colon carcinoma cell line HCT116, glioblastoma cell lines U-87MG and T98G, neuroblastoma cell lines SH-SYSY and SK-N-SH, and lung cancer cell lines A549 and NCI-H23.
(§2) HCT116, U-87MG, SH-SYSY, SK-N-SH and A549 cells were culured in DMEM medium containing 10% FBS. T98G cells were cultured in MEM medium containing 10% FBS and NCI-H23 cells were cultured in […] medium containing 10% FBS. In order to analyze an inhibition of proliferation, HCT116 cells were dispensed in 2000 cells/well into 96 well plate, and SH-SYSY, SK-N-SH, U-87MG, T98G, A549, and NCI-H23 cells were dispensed in 3000 cells/well into 96 well plate. And then, the cells were cultured at 5% CO2 and 37° C. for 16 hrs to allow the cells to attach to the wells. The compounds of the above Examples were added to each well at a concentration of 0.004, 0.013, 0.04, 0.12, 0.37, 1.1, 3.3, and 10 uM, and the culture volume was adjusted to 100 ul. A control group was treated with dimethylsulfoxide (DMSO) at the same concentration, 0.08%, as used to treat the test compounds. Afterwards, cells were cultured at 5% CO2 and 37° C. for 72 hrs. And then, 10 ul of the solution of MTT (3-(4,5-dimethylthiazol-2-yl)-2,5-diphenyltetrazolium bromide) dissolved in PBS at 5 mg/ml was added to each well to identify viable cells and the cells were cultured for further 2 hrs. The culture solution was removed, 100 ul of DMSO was added to dissolve the formed formazan and then an absorbance was measured at 535 nm. Based on the absorbance of the control cells not treated with the compounds, the amounts of the viable cells according to the concentration of the compounds were calculated. GI50 (growth inhibition 50) value which is the concentration of the compound to inhibit cancer cell proliferation by 50% was calculated using Graphpad Prism 5.0 program.

HCT116 = test system: HCT116
Method: as §1, §2

U-87MG = test system: U-87MG
Method: as §1, §2

NCI-H23 = test system: NCI-H23
Method: as §1, §2

T98G = test system: T98G
Method: as §1, §2

Structure (SMILES) | GI50 (A549; Homo sapiens, A549, 72 h) [nM] | GI50 (HCT116; Homo sapiens, HCT-116, 72 h) [nM] | GI50 (U-87MG; Homo sapiens, U-87 MG, 72 h) [nM] | GI50 (NCI-H23; Homo sapiens, NCI-H23, 72 h) [nM] | GI50 (T98G; Homo sapiens, T98G, 72 h) [nM] | GI50 (A549; 72 hrs) [nM] | GI50 (HCT116; 72 hrs) [nM] | GI50 (U-87MG; 72 hrs) [nM] | GI50 (NCI-H23; 72 hrs) [nM] | GI50 (T98G; 72 hrs) [nM]
Cc1c(-c2nc(-c3ccnc(N)c3F)ccc2O)nc(N)nc1C1CCN(C(C)C)CC1 [Example 96, 2′-amino-6-(2-amino-6-(1-isopropylpiperidin-4-yl)-5-methylpyrimidin-4-yl)-3′-fluoro-[2,4′-bipyridin]-5-ol 4hydrochloride] |  |  |  |  |  | 130 | 60 | 80 | 210 | 190
CCc1c(-c2nc(-c3ccnc(N)c3F)ccc2O)nc(N)nc1C1CCN(C(C)C)CC1 [Example 105] |  |  |  |  |  | 60 | 30 | 40 | 90 | 60
Cc1cnc(N)nc1-c1nc(-c2ccnc(N)c2F)ccc1O [Example 55, 2′-amino-6-(2-amino-5-methylpyrimidin-4-yl)-3′-fluoro-[2,4′-bipyridin]-5-ol] |  | 50 | 110 |  |  | 160 |  |  | 180 | 130
CCc1cnc(N)nc1-c1nc(-c2ccnc(N)c2F)ccc1O [Example 56, 2′-amino-6-(2-amino-5-ethylpyrimidin-4-yl)-3′-fluoro-[2,4′-bipyridin]-5-ol] | 80 |  | 60 |  |  |  | 30 |  | 90 | 130
Cc1nc(N)nc(-c2nc(-c3ccnc(N)c3F)ccc2O)c1C [Example 60, 2′-amino-6-(2-amino-5,6-dimethylpyrimidin-4-yl)-3′-fluoro-[2,4′-bipyridin]-5-ol] | 120 | 50 | 220 | 220 | 260 |  |  |  |  | 
CCc1c(-c2nc(-c3ccnc(N)c3F)ccc2O)nc(N)nc1C1CCN(C(C)C)CC1 [Example 49, 2′-amino-6-(2-amino-5-ethyl-6-(1-isopropylpiperidin-4-yl)pyrimidin-4-yl)-3′-fluoro-[2,4′-bipyridin]-5-ol] | 50 | 20 | 30 | 70 | 50 |  |  |  |  | 
CCCc1cnc(N)nc1-c1nc(-c2ccnc(N)c2F)ccc1O [Example 57, 2′-amino-6-(2-amino-5-propylpyrimidin-4-yl)-3′-fluoro-[2,4′-bipyridin]-5-ol] |  | 20 | 20 | 40 |  | 40 |  |  |  | 60
Cc1cnc(N)nc1-c1nc(-c2ccnc(N)c2F)ccc1O [Example 100, 2′-amino-6-(2-amino-5-methylpyrimidin-4-yl)-3′-fluoro-[2,4′-bipyridin]-5-ol 3hydrochloride] |  |  |  |  |  | 70 | 30 | 60 | 70 | 50
CCc1cnc(N)nc1-c1nc(-c2ccnc(N)c2F)ccc1O [Example 102, 2′-amino-6-(2-amino-5-ethylpyrimidin-4-yl)-3′-fluoro-[2,4′-bipyridin]-5-ol 3hydrochloride] |  |  |  |  |  | 40 | 10 | 30 | 30 | 20

Next, values leading:

GI50 (A549; Homo sapiens, A549, 72 h) [nM] | GI50 (HCT116; Homo sapiens, HCT-116, 72 h) [nM] | GI50 (U-87MG; Homo sapiens, U-87 MG, 72 h) [nM] | GI50 (NCI-H23; Homo sapiens, NCI-H23, 72 h) [nM] | GI50 (T98G; Homo sapiens, T98G, 72 h) [nM] | GI50 (A549; 72 hrs) [nM] | GI50 (HCT116; 72 hrs) [nM] | GI50 (U-87MG; 72 hrs) [nM] | GI50 (NCI-H23; 72 hrs) [nM] | GI50 (T98G; 72 hrs) [nM] | Structure (SMILES)
40 | 20 | 40 | 70 | 110 |  |  |  |  |  | CC(C)N1CCCC(c2cc(-c3nc(-c4ccnc(N)c4F)ccc3O)nc(N)n2)C1 (stereo not drawn) [Example 41, 2′-amino-6-(2-amino-6-(1-isopropylpiperidin-3-yl)pyrimidin-4-yl)-3′-fluoro-[2,4′-bipyridin]-5-ol]
 |  |  |  |  | 110 | 40 | 100 | 390 | 190 | CCN1CCCC(c2cc(-c3nc(-c4ccnc(N)c4F)ccc3O)nc(N)n2)C1 (stereo not drawn) [Example 90, 2′-amino-6-(2-amino-6-(1-ethylpiperidin-3-yl)pyrimidin-4-yl)-3′-fluoro-[2,4′-bipyridin]-5-ol 4hydrochloride]
20 |  | 10 | 60 | 30 |  | 10 |  |  |  | CC(C)N1CCC(c2cc(-c3nc(-c4ccnc(N)c4F)ccc3O)nc(N)n2)CC1 [Example 37, 2′-amino-6-(2-amino-6-(1-isopropylpiperidin-4-yl)pyrimidin-4-yl)-3′-fluoro-[2,4′-bipyridin]-5-ol]
 | 10 | 20 | 30 | 50 | 10 |  |  |  |  | CCCN1CCCC(c2cc(-c3nc(-c4ccnc(N)c4F)ccc3O)nc(N)n2)C1 (stereo not drawn) [Example 40, 2′-amino-6-(2-amino-6-(1-propylpiperidin-3-yl)pyrimidin-4-yl)-3′-fluoro-[2,4′-bipyridin]-5-ol]
210 | 140 | 150 | 410 | 250 |  |  |  |  |  | Cc1c(-c2nc(-c3ccnc(N)c3F)ccc2O)nc(N)nc1C1CCCN(C)C1 (stereo not drawn) [Example 46]
 |  |  |  |  | 30 | 20 | 30 | 50 | 70 | CCCN1CCCC(c2cc(-c3nc(-c4ccnc(N)c4F)ccc3O)nc(N)n2)C1 (stereo not drawn) [Example 91, 2′-amino-6-(2-amino-6-(1-propylpiperidin-3-yl)pyrimidin-4-yl)-3′-fluoro-[2,4′-bipyridin]-5-ol 4hydrochloride]
140 | 60 | 90 |  | 130 |  |  |  | 330 |  | CCCN1CCC(c2nc(N)nc(-c3nc(-c4ccnc(N)c4F)ccc3O)c2C)CC1 [Example 44, 2′-amino-6-(2-amino-5-methyl-6-(1-propylpiperidin-4-yl)pyrimidin-4-yl)-3′-fluoro-[2,4′-bipyridin]-5-ol]
 |  |  |  |  | 230 | 150 | 320 | 520 | 480 | CCN1CCC(c2nc(N)nc(-c3nc(-c4ccnc(N)c4F)ccc3O)c2C)CC1 [Example 94, 2′-amino-6-(2-amino-6-(1-ethylpiperidin-4-yl)-5-methylpyrimidin-4-yl)-3′-fluoro-[2,4′-bipyridin]-5-ol 4hydrochloride]
 |  |  |  |  | 220 | 60 | 180 | 2030 | 290 | Nc1nc(-c2nc(-c3ccnc(N)c3F)ccc2O)cc(C2CCNCC2)n1 [Example 84, 2′-amino-6-(2-amino-6-(piperidin-4-yl)pyrimidin-4-yl)-3′-fluoro-[2,4′-bipyridin]-5-ol acetate]
 |  |  |  |  | 820 | 60 | 90 | 170 | 140 | CCCc1c(-c2nc(-c3ccnc(N)c3F)ccc2O)nc(N)nc1C1CCN(C(C)C)CC1 [Example 106, 2′-amino-6-(2-amino-6-(1-isopropylpiperidin-4-yl)-5-propylpyrimidin-4-yl)-3′-fluoro-[2,4′-bipyridin]-5-ol 4hydrochloride]
 |  |  |  |  | 400 | 170 | 390 | 1790 | 690 | CCN1CCCC(c2cc(-c3nc(-c4ccnc(N)c4F)ccc3O)nc(N)n2)C1 (stereo not drawn) [Example 39, 2′-amino-6-(2-amino-6-(1-ethylpiperidin-3-yl)pyrimidin-4-yl)-3′-fluoro-[2,4′-bipyridin]-5-ol]
460 | 230 | 280 | 960 | 460 |  |  |  |  |  | CCN1CCC(c2nc(N)nc(-c3nc(-c4ccnc(N)c4F)ccc3O)c2C)CC1 [Example 43, 2′-amino-6-(2-amino-6-(1-ethylpiperidin-4-yl)-5-methylpyrimidin-4-yl)-3′-fluoro-[2,4′-bipyridin]-5-ol]
